Measured values taken from patent US12441730B2, “PRMT5 inhibitors” (Merck Sharp & Dohme LLC, priority 2019, dated 2025).
Where two headings read alike, the source gives them in different places.

Legend:
[1] = test system: symmetric dimethylation of arginine (SDMA) of PRMT5 substrates in MCF-7 cells; assay: PRMT5 Cell Target Engagement (TE) Assay; assay type: cell-based; conditions: 3 days treatment, SDMA high content imaging
How it was run: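 MCF-7 cells treated 3 days at 37 °C with a ten-point 1:3 titration from 10000 nM. Fixed cells immunostained with anti-SDMA and Alexa488 secondary; nuclear fluorescence quantified by high-content imaging versus DMSO wells, with IC50 from a 4-parameter fit.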

[2] = molecular target: T1, Full-length (FL)-PRMT5-MEP50 enzyme complex (Homo sapiens, UniProt O14744); assay: PRMT5-MEP50 Enzyme Methylation Assay (Version A); assay type: biochemical
T1 construct: Full-length (FL)-PRMT5-MEP50 enzyme complex (recombinant proteins from baculovirus-transfected Sf21 cells: FL-PRMT5; MW=73837 kDa and FL-MEP50; MW=38614); made in house; host or cells: baculovirus-transfected Sf21 cells
T1 sequence (O14744 whole entry): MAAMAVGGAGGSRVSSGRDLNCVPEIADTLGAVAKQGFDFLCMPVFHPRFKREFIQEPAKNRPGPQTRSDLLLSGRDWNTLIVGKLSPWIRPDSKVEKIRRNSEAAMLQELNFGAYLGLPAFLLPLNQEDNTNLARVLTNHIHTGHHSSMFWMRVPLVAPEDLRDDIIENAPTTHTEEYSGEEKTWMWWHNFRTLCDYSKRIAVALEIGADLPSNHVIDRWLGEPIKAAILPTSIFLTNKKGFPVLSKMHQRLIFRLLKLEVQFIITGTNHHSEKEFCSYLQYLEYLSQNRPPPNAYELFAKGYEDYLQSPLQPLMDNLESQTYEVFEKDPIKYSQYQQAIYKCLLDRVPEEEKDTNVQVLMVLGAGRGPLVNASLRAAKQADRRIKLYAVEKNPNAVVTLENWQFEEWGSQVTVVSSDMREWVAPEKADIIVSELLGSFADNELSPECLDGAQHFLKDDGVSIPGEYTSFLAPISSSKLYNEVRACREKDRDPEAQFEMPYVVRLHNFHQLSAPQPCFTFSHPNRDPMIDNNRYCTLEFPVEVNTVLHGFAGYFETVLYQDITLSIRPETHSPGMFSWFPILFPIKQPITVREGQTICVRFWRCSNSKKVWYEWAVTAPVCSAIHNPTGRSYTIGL
T1 sequence (Q9BQA1 whole entry partner): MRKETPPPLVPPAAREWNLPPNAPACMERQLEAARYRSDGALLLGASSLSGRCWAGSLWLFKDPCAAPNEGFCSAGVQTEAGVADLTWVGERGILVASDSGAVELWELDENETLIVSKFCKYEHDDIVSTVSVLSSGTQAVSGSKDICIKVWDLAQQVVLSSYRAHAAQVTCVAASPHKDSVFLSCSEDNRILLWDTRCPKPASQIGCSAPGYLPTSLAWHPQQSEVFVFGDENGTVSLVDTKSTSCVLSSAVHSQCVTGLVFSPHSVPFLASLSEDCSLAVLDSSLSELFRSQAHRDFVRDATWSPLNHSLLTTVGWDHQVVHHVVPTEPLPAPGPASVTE
How it was run: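 Compound was pre-incubated with enzyme for 60 min, then reacted 150 min at 37° C. at final 1.0 nM PRMT5-MEP50, 15 μM SAM and 75 nM biotinylated H4R3(Me1) peptide, in 50 mM Bicine pH 8.0 with 1% DMSO. SAMDI mass-spectrometric readout of Me1→Me2 conversion. EC50 from 4- or 7-parameter regression.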

[3] = second value of 7 parameter biphasic fit, read-out: Enzyme Methylation Assay Version A (EC50 2)
[4] = single EC50 = 4 parameter single site sigmoidal fit, EC50 1 = first value of 7 parameter biphasic fit, read-out: Enzyme Methylation Assay Version A (EC50 or EC50 1)

Row | EC50 [1] | EC50 [2, 3] | EC50 [2, 4] | EC50 ([1]; Homo sapiens, MCF7, 72 h) | Molecule
1 | 205 nM | 4620 nM | 4.83 nM |  | N#CCCC1CC(C(F)(F)F)Cn2cc(C(=O)N3CC[C@]4(Cc5ccccc5CN4)[C@H](O)C3)nc21 (single isomer, unassigned) [Example 164, 3-((6R,8S or 6S,8R)-2-((3R,3′R)-3′-hydroxy-1,4-dihydro-2H-spiro[isoquinoline-3,4′-piperidine]-1′-carbonyl)-6-(trifluoromethyl)-5,6,7,8-tetrahydroimidazo[1,2-a]pyridin-8-yl)propanenitrile]
2 |  | 29200 nM | 95.5 nM | 571 nM | O=C(c1cn2cc(O)ccc2n1)N1CC[C@]2(Cc3ccccc3CN2)[C@H](O)C1 [Example 39, ((3R,3’R)-3′-hydroxy-1,4-dihydro-2H-spiro[isoquinoline-3,4′-piperidin]-1′-yl)(6-hydroxyimidazo[1,2-a]pyridin-2-yl)methanone]
3 |  | 2750 nM | 2.8 nM | 324 nM | COc1nc(C)ccc1C(=O)N1CC[C@]2(Cc3ccccc3CN2)[C@H](O)C1 [Example 205, [(3R,3′R)-3′-hydroxy-1,4-dihydro-1′H,2H-spiro[isoquinoline-3,4′-piperidin]-1′-yl](2-methoxy-6-methyl-3-pyridinyl)methanone]
4 | 8.37 nM |  | 13.9 nM |  | CC1CC1c1cnc2nc(C(=O)N3CC[C@]4(Cc5ccccc5CN4)[C@H](O)C3)cn2c1 (single isomer, unassigned) [Example 74]
5 |  | 1780 nM | 2.56 nM | 19 nM | O=C(c1ccc2c(c1)NCCN(CC(F)(F)F)C2=O)N1CC[C@]2(Cc3ccccc3CN2)[C@H](O)C1 [Example 170, 8-{[(3R,3′R)-3′-hydroxy-1,4-dihydro-1′H,2H-spiro[isoquinoline-3,4′-piperidin]-1′-yl]carbonyl}-4-(2,2,2-trifluoroethyl)-1,2,3,4-tetrahydro-5H-1,4-benzodiazepin-5-one]
6 | 800 nM | 34700 nM | 52.1 nM |  | CC(n1ccc(C(=O)N2CC[C@]3(Cc4ccccc4CN3)[C@H](O)C2)cc1=O)C(F)(F)F (single isomer, unassigned) [Example 102, 4-((3R,3′R)-3′-hydroxy-2,4-dihydro-1H-spiro[isoquinoline-3,4′-piperidin]-1′-ylcarbonyl)-1-((S or R)-1,1,1-trifluoropropan-2-yl)pyridin-2(1H)-one]
7 | 173 nM |  | 65.9 nM |  | COCCN1CC(C2CC2)Cn2cc(C(=O)N3CC[C@]4(Cc5ccccc5CN4)[C@H](O)C3)nc21 (single isomer, unassigned) [Example 144]
8 | 1700 nM | 29800 nM | 71.6 nM |  | COCC1CC(C)Cn2cc(C(=O)N3CC[C@]4(Cc5ccccc5CN4)[C@H](O)C3)nc21 (single isomer, unassigned) [Example 158]
9 |  | 240 nM | 0.27 nM | 263 nM | O=C(c1cc2ncc(C3CC3)cn2n1)N1CC[C@]2(Cc3ccccc3CN2)[C@H](O)C1 [Example 70, (6-cyclopropylpyrazolo[1,5-a]pyrimidin-2-yl)[(3R,3′R)-3′-hydroxy-1,4-dihydro-1′H,2H-spiro[isoquinoline-3,4′-piperidin]-1′-yl]methanone]
10 |  | 211 nM | 0.932 nM | 4.87 nM | CO[C@H](C)c1cc(-c2cncs2)cn2cc(C(=O)N3CC[C@]4(Cc5ccccc5CN4)[C@H](O)C3)nc12 [Example 241, [(3R,3′R)-3′-hydroxy-1,4-dihydro-1′H,2H-spiro[isoquinoline-3,4′-piperidin]-1′-yl]{8-[(1R)-1-methoxyethyl]-6-(1,3-thiazol-5-yl)imidazo[1,2-a]pyridin-2-yl}methanone]
11 |  |  | 0.675 nM | 1.68 nM | CO[C@H](C)c1cc(-c2sc(C)nc2C)cn2cc(C(=O)N3CC[C@]4(Cc5ccccc5CN4)[C@H](O)C3)nc12 [Example 244, {6-(2,4-dimethyl-1,3-thiazol-5-yl)-8-[(1R)-1-methoxyethyl]imidazo[1,2-a]pyridin-2-yl}[(3R,3′R)-3′-hydroxy-1,4-dihydro-1′H,2H-spiro[isoquinoline-3,4′-piperidin]-1′-yl]methanone]
12 |  | 7080 nM | 11.7 nM | 680 nM | Cc1cn2cc(C(=O)N3CC[C@]4(Cc5ccccc5CN4)[C@H](O)C3)nc2c(Cl)n1 [Example 252, (8-chloro-6-methylimidazo[1,2-a]pyrazin-2-yl)[(3R,3′R)-3′-hydroxy-1,4-dihydro-1′H,2H-spiro[isoquinoline-3,4′-piperidin]-1′-yl]methanone]
13 | 212 nM | 767 nM | 8.19 nM |  | CN1CC(C2CC2)Cn2cc(C(=O)N3CC[C@]4(Cc5ccccc5CN4)[C@H](O)C3)nc21 (single isomer, unassigned) [Example 139]
14 |  | 207 nM | 4.25 nM | 12.9 nM | CC(O)c1cc(C(F)(F)F)cn2cc(C(=O)N3CC[C@]4(Cc5ccccc5CN4)[C@H](O)C3)nc12 (single isomer, unassigned) [Example 108]
15 |  |  | 8.47 nM | 26.7 nM | Cc1ccc2c(c1)C[C@]1(CCN(C(=O)c3cn4cc(C5CC5)cnc4n3)C[C@H]1O)NC2 (single isomer, unassigned) [Example 227]
16 | 194 nM | 3630 nM | 9.55 nM |  | CC1CC(C(F)(F)F)Cn2cc(C(=O)N3CC[C@]4(Cc5ccccc5CN4)[C@H](O)C3)nc21 (single isomer, unassigned) [Example 167, ((3R,3′R)-3′-hydroxy-1,4-dihydro-2H-spiro[isoquinoline-3,4′-piperidin]-1′-yl)((6R,8R or 6S,8S)-8-methyl-6-(trifluoromethyl)-5,6,7,8-tetrahydroimidazo[1,2-a]pyridin-2-yl)methanone]
17 |  | 25400 nM | 432 nM | ≥ 10000 nM | O=C(c1cn(C2CC2)cn1)N1CC[C@]2(Cc3ccccc3CN2)[C@H](O)C1 [Example 222, (1-cyclopropyl-1H-imidazol-4-yl)[(3R,3′R)-3′-hydroxy-1,4-dihydro-1′H,2H-spiro[isoquinoline-3,4′-piperidin]-1′-yl]methanone]
18 |  | 320 nM | 0.406 nM | 8.16 nM | O=C1CCCN1CCOc1nc(Br)cn2cc(C(=O)N3CC[C@]4(Cc5ccccc5CN4)[C@H](O)C3)nc12 [Example 13, 1-(2-((6-bromo-2-((3R,3’R)-3′-hydroxy-1,4-dihydro-2H-spiro[isoquinoline-3,4′-piperidine]-1′-carbonyl)imidazo[1,2-a]pyrazin-8-yl)oxy)ethyl)pyrrolidin-2-one]
19 | 121 nM | 1910 nM | 1.11 nM |  | CC1(C)CC1(C#N)c1cnc2nc(C(=O)N3CC[C@]4(Cc5ccccc5CN4)[C@H](O)C3)cn2c1 (single isomer, unassigned) [Example 148]
20 | 115 nM | 3060 nM | 5.6 nM |  | A diastereomer of [(3R,3′R)-3′- hydroxy-1,4-dihydro-1′H,2H- spiro[isoquinoline-3,4′-piperidin]-1′- yl][6-isopropyl-8-(1- methoxyethyl)imidazo[1,2- a]pyridin-2-yl]methanone [Example 85]
21 |  | 14600 nM | 21.9 nM | 1590 nM | Cc1ccc(C(=O)N2CC[C@]3(Cc4ccccc4CN3)[C@H](O)C2)c(Cl)n1 [Example 204, (2-chloro-6-methyl-3-pyridinyl)[(3R,3′R)-3′-hydroxy-1,4-dihydro-1′H,2H-spiro[isoquinoline-3,4′-piperidin]-1′-yl]methanone]
22 | 374 nM | 9120 nM | 5.9 nM |  | O=C(c1cn2c(n1)C(C1CCOC1)CC(C(F)(F)F)C2)N1CC[C@]2(Cc3ccccc3CN2)[C@H](O)C1 (single isomer, unassigned) [Example 161, ((3R,3′R)-3′-hydroxy-1,4-dihydro-2H-spiro[isoquinoline-3,4′-piperidin]-1′-yl)((6S,8S or 6R,8R)-8-((S or R)-tetrahydrofuran-3-yl)-6-(trifluoromethyl)-5,6,7,8-tetrahydroimidazo[1,2-a]pyridin-2-yl)methanone]
23 |  | 1350 nM | 4.57 nM | 155 nM | O=C(c1cc2oc3ccccc3c2cc1O)N1CC[C@]2(Cc3ccccc3CN2)[C@H](O)C1 [Example 182, ((3R,3′R)-3′-hydroxy-1,4-dihydro-2H-spiro[isoquinoline-3,4′-piperidin]-1′-yl)(2-hydroxydibenzo[b,d]furan-3-yl)methanone]
24 |  |  | 0.816 nM | 2.75 nM | COCc1cc(Br)cn2cc(C(=O)N3CC[C@]4(Cc5ccccc5CN4)[C@H](O)C3)nc12 [Example 28, (6-bromo-8-(methoxymethyl)imidazo[1,2-a]pyridin-2-yl)((3R,3’R)-3′-hydroxy-1,4-dihydro-2H-spiro[isoquinoline-3,4′-piperidin]-1′-yl)methanone]
25 |  | 1440 nM | 3.22 nM | 19.1 nM | COc1ccc2nc(C(=O)N3CC[C@]4(Cc5ccccc5CN4)[C@H](O)C3)cn2c1 [Example 43, ((3R,3’R)-3′-hydroxy-1,4-dihydro-2H-spiro[isoquinoline-3,4′-piperidin]-1′-yl)(6-methoxyimidazo[1,2-a]pyridin-2-yl)methanone]
